6 sequences from US6924266B2, “NTP-peptides and method for removal of tumors” (Nymox Corporation, priority 2001, dated 2005) can be followed below.

The test system of this experiment is muscle tissue, subcutaneous connective tissue, and dermis. The experiment is described as follows: Effect on tissue at sites of injection in normal rats, histopathology at 24 hours. It counts as in vivo. To be noted: for effect on tissue at sites of injection (histopathology): injected in skin, subcutaneously and in extremity skeletal muscle, in saline, 100 to 400 mL at 0.1-1 mg/mL, sacrificed at 24 hours; for muscle changes at injection sites compared with controls: extremity skeletal muscle injection; for muscle changes at injection sites compared with controls / spread of necrosis / cell death beyond the site of injection: 24 hours; for spread of necrosis / cell death beyond the site of injection: local injection. As to the method:
Eight normal rats were injected in the skin and subcutaneously, each in four different foci, and in extremity skeletal muscle, each in two different foci, with NTP peptide #43 in saline in quantities of […] at concentrations of 0.1-1 mg/mL delivered from plastic syringes through stainless steel 26 gauge needles.
The 48 individual foci of infiltration were excised, fixed in 10% formalin, embedded in paraffin, and stained and examined by standard histopathological methods.
Similar groups of control rats were injected with (1) bovine serum albumin 0.1% in saline, (2) normal human serum, (3) physiological saline, (4) noninfectious bacterial proteins, and (5) control peptides and purified and then examined and sacrificed as above, with the excised foci of injection treated as above.
Eight normal rats were injected in the skin and subcutaneously, each in four different foci, and in extremity skeletal muscle, each in two different foci, with NTP peptide #17 in saline in quantities of […] at concentrations of 0.1-1 mg/mL delivered from plastic syringes through stainless steel 26 gauge needles.
The controls were the same as Example 1.
Eight normal rats were injected in the skin and subcutaneously, each in four different foci, and in extremity skeletal muscle, each in two different foci, with NTP peptide #20 in saline in quantities of […] at concentrations of 0.1-1 mg/mL delivered from plastic syringes through stainless steel 26 gauge needles.
Eight normal rats were injected in the skin and subcutaneously, each in four different foci, and in extremity skeletal muscle, each in two different foci, with NTP peptide #19 in saline in quantities of […] at concentrations of 0.1-1 mg/mL delivered from plastic syringes through stainless steel 26 gauge needles.
Eight normal rats were injected in the skin and subcutaneously, each in four different foci, and in extremity skeletal muscle, each in two different foci, with NTP peptide #16 in saline in quantities of […] at concentrations of 0.1-1 mg/mL delivered from plastic syringes through stainless steel 26 gauge needles.
Eight normal rats were injected in the skin and subcutaneously, each in four different foci, and in extremity skeletal muscle, each in two different foci, with NTP peptide #15 in saline in quantities of […] at concentrations of 0.1-1 mg/mL delivered from plastic syringes through stainless steel 26 gauge needles.
Eight normal rats were injected in the skin and subcutaneously, each in four different foci, and in extremity skeletal muscle, each in two different foci, with NTP peptide #14 in saline in quantities of […] at concentrations of 0.1-1 mg/mL delivered from plastic syringes through stainless steel 26 gauge needles.

As for “FILFFLRHRCPTL (listed as Homo sapiens) [NTP peptide #19]”, the “effect on tissue at sites of injection (histopathology)” value (“effect on tissue … (histopathology)” for short) is “cell death and necrosis of tissue at the injection sites”. As for “FILFFLRHRCPTLTQDEVQWCDHSS (listed as Homo sapiens) [NTP peptide #20]”, the “muscle changes at injection sites compared with controls” value is “entire fields of muscle fiber layers were necrotic”; the “effect on tissue … (histopathology)” value was “cell death and necrosis of tissue at the injection sites”; the “spread of necrosis / cell death beyond the site of injection” value was “did not appear to spread far beyond the site of injection”.

For “KCWDYRRAAVPGL (listed as Homo sapiens) [NTP peptide #14]”, the “effect on tissue … (histopathology)” value was “cell death and necrosis of tissue at the injection sites”.

As to “KCWDYRRAAVPGLFILFFL (listed as Homo sapiens) [NTP peptide #15]”, the “effect on tissue … (histopathology)” value is “cell death and necrosis of tissue at the injection sites”.

“KCWDYRRAAVPGLFILFFLRHRCP (listed as Homo sapiens) [NTP peptide #16]”: the “effect on tissue … (histopathology)” value is “cell death and necrosis of tissue at the injection sites”.

As to “KCWDYRRAAVPGLFILFFLRHRCPTLTQDEVQWCDHSS (listed as Homo sapiens) [NTP peptide #17]”, the “muscle changes at injection sites compared with controls” value is given as “entire fields of muscle fiber layers were necrotic”, the “effect on tissue … (histopathology)” value is recorded as “abundant acute necrosis of tissue at the injection sites” and the “spread of necrosis / cell death beyond the site of injection” value was “did not appear to spread far beyond the site of injection”.
